Measurements reported in patent US10342796B2, “Acrylanilide derivative, preparation method, and applications thereof in pharmacy” (Ancureall Pharmaceutical (Shanghai) Co., Ltd., priority 2015, dated 2019).
Like-named read-outs stand apart in the source and are kept apart here.

What was measured:
Assay in all cases: Growth inhibition GI50 in vitro (CCK8/MTT, 72 h)
H1975 (EGFR L858R/T790M) = format: cell-based, human; conditions: Homo sapiens, NCI-H1975
HCC827 (EGFR dE746-A750) = format: cell-based, human; conditions: Homo sapiens
PC-9 (EGFR dE746-A750) = format: cell-based, human; conditions: Homo sapiens
[1] = system: PC-9ER (EGFR delE746-A750/T790M); format: cell-based, human; conditions: Homo sapiens, PC-9/ER; EGFR mutant cell line; range of GI50; read-out: GI50 PC9ER
N87 (HER2 Amp) = format: cell-based, human; conditions: Homo sapiens
AU565 (Her2 amp) = format: cell-based, human; conditions: Homo sapiens
SK-BR-3 (Her2 amp) = format: cell-based, human; conditions: Homo sapiens
Calu-3 (Her2 amp) = format: cell-based; conditions: Homo sapiens
Method: Human lung adenocarcinoma cell line Calu-3 (ATCC) was cultured with 1×MEM complete medium (10% FBS, 1% double-antibiotics, 1% NEAA (Gibco), 2 mM glutamine and 1 mM of sodium pyruvate). Human breast cancer cell line SK-BR-3 was cultured with McCOY'S5A complete medium (10% FBS). Human colon cancer cell line SNU1040 (HER2 V777M positive) (ATCC) and human bronchoalveolar adenocarcinoma cell line NCI-H1781 (expressing HER2 exon 20 G776VC mutation) (ATCC) were cultured with 1×RPMI1640 complete medium (10% FBS), respectively.
The suspension cells were collected by centrifugation. The supernatant was discard and the cell pellet was resuspended and counted. Different cell concentrations (5˜10×10^4 cells/mL) were prepared according to the growth cycle of each cell line and then seeded on a 96-well plate (Corning), 100 μL/well. The cells were incubated over night at 37° C., 5% CO2. The compounds were added to the cells on the second day with 2 wells in parallel. The final concentration of organic solvent shall not exceed 1%. The cells were continually incubated for 72 h, and then subjected to MTT assay.
The present compounds and the reference compounds were dissolved with DMSO (Sigma), respectively. […] The storage concentration of compounds was 10 mM and kept at −20° C. They were diluted by 2 times or 10 times with serial dilution before using.
Dojindo CCK8 reagent kit was used as MTT assay. […] FC meter was used as microplate reader.
Adherent cell culture medium was discard and immediately replaced with fresh prepared medium which contains 10% CCK8 reagent (100 μL/well). For the suspension cells, CCK8 was directly added to 10% of the final concentration. The cells were continually incubated for 1˜4 h. When the color of control wells turned to dark yellow, the absorption value was measured at OD450 nm. The cell growth rate was calculated according to the following formula: cell growth rate (%)=100*(T−T0)/(C−T0), T=optical density of drug treatment cell well—optical density of blank control well; T0=optical density of cell well before drug treatment—optical density of blank control well; C=optical density of cell well of solvent control group—optical density of blank control well. […] The experiment was independently repeated 1˜3 times, and subject to biological statistical analysis.

H292 (EGFR WT) = format: cell-based; conditions: Homo sapiens, NCI-H292
[2] = system: A431 (EGFR WT, amplification and high expression); format: cell-based, human; conditions: Homo sapiens, A-431
A549 (EGFR WT) = format: cell-based, human; conditions: Homo sapiens, A549
[3] = system: H1299 (EGFR wt, Nras Q61K); format: cell-based, human; conditions: Homo sapiens, NCI-H1299; EGFR wild type cell line; range of GI50; read-out: GI50 H1299
[4] = system: H460 (EGFR wt, Kras G61H); format: cell-based, human; conditions: Homo sapiens, NCI-H460; EGFR wild type cell line; range of GI50; read-out: GI50 H460
[5] = EGFR mutant cell line, range of GI50, read-out: GI50 H1975
[6] = HCC827, EGFR mutant cell line, range of GI50, read-out: GI50 HCC827
[7] = EGFR mutant cell line, range of GI50, read-out: GI50 PC-9
[8] = HER2 positive cell line, range of GI50, read-out: GI50 N87
[9] = AU565, HER2 positive cell line, range of GI50, read-out: GI50 AU-565
[10] = SK-BR-3, HER2 positive cell line, range of GI50, read-out: GI50 SK-BR-3
[11] = EGFR wild type cell line, range of GI50, read-out: GI50 A431
[12] = Table 13, 72 h, read-out: Range of GI50 H1975 (EGFR L858R/T790M)
[13] = Table 15, 1000 nM to 0.03 nM serial dilution, read-out: GI50 H1975 (EGFR L858R/T790M)
[14] = Table 13, 72 h, read-out: Range of GI50 PC-9 (EGFR dE746-A750)
[15] = Table 15, 1000 nM to 0.03 nM serial dilution, read-out: GI50 PC-9 (EGFR dE746-A750)
[16] = Table 13, 72 h, read-out: Range of GI50 N87 (HER2 Amp)
[17] = Table 16, 1000 nM to 0.03 nM serial dilution, read-out: GI50 N87 (HER2 amp)
[18] = Calu-3, Table 16, 1000 nM to 0.03 nM serial dilution, read-out: GI50 Calu3 (HER2 amp)
[19] = Table 15, 1000 nM to 0.03 nM serial dilution, read-out: GI50 H292 (EGFR WT)
[20] = Table 13, 72 h, read-out: Range of GI50 A549 (EGFR WT)
[21] = Table 15, 1000 nM to 0.03 nM serial dilution, read-out: GI50 A549 (EGFR WT)

Q: What does the source list for `C=CC(=O)Nc1cc(Nc2ncnc(Nc3cccc(Br)c3)n2)c(OC)cc1N1CCC(N2CCCC2)CC1` [Compound 118]?
A: GI50 (H1975 (EGFR L858R/T790M); [5]): < 10 nM; GI50 (H1975 (EGFR L858R/T790M); H1975, EGFR L858R/T790M, read-out: GI50): 9.4 nM; GI50 (HCC827 (EGFR dE746-A750); [6]): < 10 nM; GI50 (HCC827 (EGFR dE746-A750); HCC827, EGFR dE746-A750, read-out: GI50): 2.3 nM; GI50 (PC-9 (EGFR dE746-A750); [7]): < 10 nM; GI50 (PC-9 (EGFR dE746-A750); PC-9, EGFR dE746-A750, read-out: GI50): 2.38 nM; GI50 [1]: < 10 nM; GI50 (N87 (HER2 Amp); [8]): < 10 nM; GI50 (N87 (HER2 Amp); N87, EGFR wt, Her2 amp, read-out: GI50): 4.8 nM; GI50 (AU565 (Her2 amp); [9]): < 10 nM; GI50 (AU565 (Her2 amp); AU565, EGFR wt, Her2 amp, read-out: GI50): 4.8 nM; GI50 (SK-BR-3 (Her2 amp); [10]): 10 to 100 nM; GI50 (SK-BR-3 (Her2 amp); SK-BR-3, EGFR wt, Her2 amp, read-out: GI50): 29.2 nM; GI50 (Calu-3 (Her2 amp); Calu-3, EGFR wt, Her2 amp, read-out: GI50): 14.6 nM; GI50 (H292 (EGFR WT); H292, EGFR wt, read-out: GI50): > 1000 nM; GI50 ([2]; A431, EGFR wt, read-out: GI50): 156 nM; GI50 [2, 11]: 100 to 1000 nM

Q: How did the GI50 (H1975 (EGFR L858R/T790M); [5]) turn out when `C=CC(=O)Nc1cc(Nc2cc(-c3cn(C(C)C)c4ccc(F)cc34)ncn2)c(OC)cc1N(C)CCN(C)C` [Compound 191, N-(5-(6-(5-fluoro-1-isopropyl-1H-indol-3-yl)-pyrimidin-4-ylamino)-4-methoxyl-2-((2-dimethylamino-ethyl)-methyl-amino)-phenyl)-acrylamide] was run?
A: The GI50 was less than 10 nM.

Q: What about the GI50 (HCC827 (EGFR dE746-A750); [6]) of the same molecule?
A: Its GI50 is less than 10 nM.

Q: What about the GI50 (PC-9 (EGFR dE746-A750); [7]) of the same molecule?
A: The GI50 was less than 10 nM.

Q: What about the GI50 [1] of the same molecule?
A: Its GI50 is less than 10 nM.

Q: What about the GI50 (N87 (HER2 Amp); [8]) of the same molecule?
A: The GI50 was less than 10 nM.

Q: What about the GI50 (AU565 (Her2 amp); [9]) of the same molecule?
A: The GI50 was 10 to 100 nM.

Q: What about the GI50 (SK-BR-3 (Her2 amp); [10]) of the same molecule?
A: The GI50 was less than 10 nM.

Q: And the GI50 [2, 11]?
A: Its GI50 is 100 to 1000 nM.

Q: What about the GI50 (A549 (EGFR WT); EGFR wild type cell line, range of GI50, read-out: GI50 A549) of the same molecule?
A: The GI50 was greater than 1000 nM.

Q: And the GI50 [3]?
A: Its GI50 is greater than 1000 nM.

Q: What about the GI50 [4] of the same molecule?
A: The GI50 was greater than 1000 nM.

Q: What does the source list for `C=CC(=O)Nc1cc(Nc2nccc(-n3ccc4c(OCCOC)cccc43)n2)c(OC)cc1N(C)CCN(C)C` [Compound 205, N-(5-(4-(4-(2-methoxyl-ethoxyl)-1H-indol-1-yl)-pyrimidin-2-ylamino)-2-(2-(dimethylamino-ethyl)-methyl-amino)-4-methoxyl-phenyl)-acrylamide]?
A: GI50 (H1975 (EGFR L858R/T790M); [12]): < 10 nM; GI50 (H1975 (EGFR L858R/T790M); [13]): 4.9 nM; GI50 (PC-9 (EGFR dE746-A750); [14]): < 10 nM; GI50 (PC-9 (EGFR dE746-A750); [15]): 7.81 nM; GI50 (N87 (HER2 Amp); [16]): < 10 nM; GI50 (N87 (HER2 Amp); [17]): 5.61 nM; GI50 (Calu-3 (Her2 amp); [18]): 7.88 nM; GI50 (H292 (EGFR WT); [19]): > 1000 nM; GI50 (A549 (EGFR WT); [20]): > 1000 nM; GI50 (A549 (EGFR WT); [21]): > 1000 nM

Q: With `C=CC(=O)Nc1cc(Nc2cc(Nc3ccc(OCC4CCOCC4)c(Cl)c3)ncn2)c(OC)cc1N(C)CCN(C)C` [Compound 216, N-(5-(6-(3-chloro-4-(tetrahydropyran-4-yl-methoxyl)-phenylamino)-pyrimidin-4-ylamino)-2-((2-dimethylaminoethyl)-methyl-amino)-4-methoxyphenyl)-acrylamide] as the molecule, how does the GI50 (H1975 (EGFR L858R/T790M); [12]) read?
A: Its GI50 is less than 10 nM.

Q: What about the GI50 (H1975 (EGFR L858R/T790M); [13]) of the same molecule?
A: Its GI50 is 8.96 nM.

Q: And the GI50 (PC-9 (EGFR dE746-A750); [14])?
A: Its GI50 is less than 10 nM.

Q: What about the GI50 (PC-9 (EGFR dE746-A750); [15]) of the same molecule?
A: Its GI50 is 9.87 nM.

Q: And the GI50 (N87 (HER2 Amp); [16])?
A: Its GI50 is less than 10 nM.

Q: What about the GI50 (N87 (HER2 Amp); [17]) of the same molecule?
A: The GI50 was 19.5 nM.

Q: And the GI50 (H292 (EGFR WT); [19])?
A: Its GI50 is greater than 1000 nM.

Q: What about the GI50 (A549 (EGFR WT); [20]) of the same molecule?
A: Its GI50 is greater than 1000 nM.

Q: And the GI50 (A549 (EGFR WT); [21])?
A: The GI50 was greater than 1000 nM.

Q: For `C=CC(=O)Nc1cc(Nc2cc(Nc3cc(F)c(OC)c(Cl)c3)ncn2)c(OC)cc1N(C)CCN(C)C` [Compound 236, N-(5-(6-(3-chloro-5-fluoro-4-methoxyphenylamino)-pyrimidin-4-yl-amino)-2-((2-dimethylamino-ethyl)-methyl-amino)-4-methoxyl-phenyl)-acrylamide], which GI50 (H1975 (EGFR L858R/T790M); [12]) is on record?
A: The GI50 was less than 10 nM.

Q: What about the GI50 (H1975 (EGFR L858R/T790M); [13]) of the same molecule?
A: The GI50 was 3.88 nM.

Q: And the GI50 (PC-9 (EGFR dE746-A750); [14])?
A: The GI50 was less than 10 nM.

Q: And the GI50 (PC-9 (EGFR dE746-A750); [15])?
A: The GI50 was 1.49 nM.

Q: And the GI50 (N87 (HER2 Amp); [16])?
A: Its GI50 is less than 10 nM.

Q: What about the GI50 (N87 (HER2 Amp); [17]) of the same molecule?
A: The GI50 was 0.82 nM.

Q: And the GI50 (Calu-3 (Her2 amp); [18])?
A: Its GI50 is 1.46 nM.

Q: What about the GI50 (H292 (EGFR WT); [19]) of the same molecule?
A: The GI50 was greater than 1000 nM.

Q: And the GI50 (A549 (EGFR WT); [20])?
A: The GI50 was greater than 1000 nM.

Q: And the GI50 (A549 (EGFR WT); [21])?
A: The GI50 was greater than 1000 nM.
